Laboratory results reported in BindingDB's records for doi:10.1016/j.bmc.2009.04.013 (Biocryst Pharmaceuticals, 2009).

Target: T1, Serine protease 1 (Bos taurus, UniProt P00760)
T1 sequence (P00760 whole entry): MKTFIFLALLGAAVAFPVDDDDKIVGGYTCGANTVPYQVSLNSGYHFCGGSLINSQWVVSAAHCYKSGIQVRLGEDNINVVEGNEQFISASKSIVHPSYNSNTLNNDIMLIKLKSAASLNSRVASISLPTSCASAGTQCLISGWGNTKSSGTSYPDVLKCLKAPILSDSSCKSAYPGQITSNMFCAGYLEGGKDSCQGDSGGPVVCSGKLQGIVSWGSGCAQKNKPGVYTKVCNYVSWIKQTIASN
Experiment: TF-FVIIa Enzyme Inhibition Assay
Conditions: 25 °C

| SMILES | IC50 |
| --- | --- |
| CC(C)CNC(=O)c1ccc(-c2ccccc2C(=O)Nc2ccc(C(=N)N)cc2)c(C(=O)O)c1 | 170 nM |
| COc1ccc(-c2ccc(C(=O)NCC(C)C)cc2C(=O)O)c(C(=O)Nc2ccc(C(=N)N)cc2)c1 [substituted biphenyl derivative, 24] | 820 nM |
| CC(C)CNC(=O)c1ccc(-c2ccc(O)cc2C(=O)Nc2ccc(C(=N)N)cc2)c(C(=O)O)c1 [substituted biphenyl derivative, 36a] | 390 nM |
| CC(C)CNC(=O)c1ccc(-c2ccc(-c3ccco3)cc2C(=O)Nc2ccc(C(=N)N)cc2)c(C(=O)O)c1 [substituted biphenyl derivative, 36ab] | 370 nM |
| CC(C)CNC(=O)c1ccc(-c2ccc(-c3ccoc3)cc2C(=O)Nc2ccc(C(=N)N)cc2)c(C(=O)O)c1 [substituted biphenyl derivative, 36ac] | 470 nM |
| CC(C)CNC(=O)c1ccc(-c2ccc(-c3ccc[nH]3)cc2C(=O)Nc2ccc(C(=N)N)cc2)c(C(=O)O)c1 [substituted biphenyl derivative, 36ad] | 430 nM |
| CC(C)CNC(=O)c1ccc(-c2ccc(-c3cccn3C)cc2C(=O)Nc2ccc(C(=N)N)cc2)c(C(=O)O)c1 [substituted biphenyl derivative, 36ae] | 410 nM |
| CC(C)CNC(=O)c1ccc(-c2ccc(Cc3cccs3)cc2C(=O)Nc2ccc(C(=N)N)cc2)c(C(=O)O)c1 [substituted biphenyl derivative, 36ag] | 1510 nM |
| C=Cc1ccc(-c2ccc(C(=O)NCC(C)C)cc2C(=O)O)c(C(=O)Nc2ccc(C(=N)N)cc2)c1 [substituted biphenyl derivative, 36b] | 470 nM |
| CCc1ccc(-c2ccc(C(=O)NCC(C)C)cc2C(=O)O)c(C(=O)Nc2ccc(C(=N)N)cc2)c1 [substituted biphenyl derivative, 36c] | 5990 nM |
| C#Cc1ccc(-c2ccc(C(=O)NCC(C)C)cc2C(=O)O)c(C(=O)Nc2ccc(C(=N)N)cc2)c1 [substituted biphenyl derivative, 36f] | 2870 nM |
| C=C(C)c1ccc(-c2ccc(C(=O)NCC(C)C)cc2C(=O)O)c(C(=O)Nc2ccc(C(=N)N)cc2)c1 [substituted biphenyl derivative, 36g] | 530 nM |
| C=C=Cc1ccc(-c2ccc(C(=O)NCC(C)C)cc2C(=O)O)c(C(=O)Nc2ccc(C(=N)N)cc2)c1 [substituted biphenyl derivative, 36h] | 560 nM |
| CC#Cc1ccc(-c2ccc(C(=O)NCC(C)C)cc2C(=O)O)c(C(=O)Nc2ccc(C(=N)N)cc2)c1 [substituted biphenyl derivative, 36i] | 1660 nM |
| C/C=C\Cc1ccc(-c2ccc(C(=O)NCC(C)C)cc2C(=O)O)c(C(=O)Nc2ccc(C(=N)N)cc2)c1 [substituted biphenyl derivative, 36j] | 1340 nM |
| CC(C)=CCc1ccc(-c2ccc(C(=O)NCC(C)C)cc2C(=O)O)c(C(=O)Nc2ccc(C(=N)N)cc2)c1 [substituted biphenyl derivative, 36k] | 950 nM |
| CC(C)CNC(=O)c1ccc(-c2ccc(/C=C\CO)cc2C(=O)Nc2ccc(C(=N)N)cc2)c(C(=O)O)c1 [substituted biphenyl derivative, 36m] | 1770 nM |
| C=C(CO)c1ccc(-c2ccc(C(=O)NCC(C)C)cc2C(=O)O)c(C(=O)Nc2ccc(C(=N)N)cc2)c1 [substituted biphenyl derivative, 36n] | 3540 nM |
| C=C(CCO)c1ccc(-c2ccc(C(=O)NCC(C)C)cc2C(=O)O)c(C(=O)Nc2ccc(C(=N)N)cc2)c1 [substituted biphenyl derivative, 36o] | 2190 nM |
| CC(C)CNC(=O)c1ccc(-c2ccc(C#CCCO)cc2C(=O)Nc2ccc(C(=N)N)cc2)c(C(=O)O)c1 [substituted biphenyl derivative, 36q] | 400 nM |
| CC(C)CNC(=O)c1ccc(-c2ccc(C(O)CO)cc2C(=O)Nc2ccc(C(=N)N)cc2)c(C(=O)O)c1 (stereo not drawn) [substituted biphenyl derivative, 36s] | 22100 nM |
| CC(C)CNC(=O)c1ccc(-c2ccc(-c3ccccc3)cc2C(=O)Nc2ccc(C(=N)N)cc2)c(C(=O)O)c1 [substituted biphenyl derivative, 36v] | 420 nM |
| CC(C)CNC(=O)c1ccc(-c2ccc(Cc3ccccc3)cc2C(=O)Nc2ccc(C(=N)N)cc2)c(C(=O)O)c1 [substituted biphenyl derivative, 36w] | 570 nM |
| CC(C)CNC(=O)c1ccc(-c2ccc(-c3cccnc3)cc2C(=O)Nc2ccc(C(=N)N)cc2)c(C(=O)O)c1 [substituted biphenyl derivative, 36y] | 3020 nM |

The remaining lines, values ahead:

| IC50 | SMILES |
| --- | --- |
| 380 nM | CC(C)CNC(=O)c1ccc(-c2ccc(-c3ccsc3)cc2C(=O)Nc2ccc(C(=N)N)cc2)c(C(=O)O)c1 [substituted biphenyl derivative, 36aa] |
| 1470 nM | CC(C)CNC(=O)c1ccc(-c2ccc(-c3nccs3)cc2C(=O)Nc2ccc(C(=N)N)cc2)c(C(=O)O)c1 [substituted biphenyl derivative, 36af] |
| 3040 nM | CC(C)CNC(=O)c1ccc(-c2ccc(-c3ccsc3CO)cc2C(=O)Nc2ccc(C(=N)N)cc2)c(C(=O)O)c1 [substituted biphenyl derivative, 36ai] |
| 4390 nM | CC(C)CNC(=O)c1ccc(-c2ccc(-c3sccc3CO)cc2C(=O)Nc2ccc(C(=N)N)cc2)c(C(=O)O)c1 [substituted biphenyl derivative, 36aj] |
| 510 nM | CC(C)CNC(=O)c1ccc(-c2ccc(-c3cscc3CO)cc2C(=O)Nc2ccc(C(=N)N)cc2)c(C(=O)O)c1 [substituted biphenyl derivative, 36ak] |
| 1180 nM | CC(C)CNC(=O)c1ccc(-c2ccc(-c3cscc3CN=[N+]=[N-])cc2C(=O)Nc2ccc(C(=N)N)cc2)c(C(=O)O)c1 [substituted biphenyl derivative, 36am] |
| 1770 nM | CC(C)CNC(=O)c1ccc(-c2ccc(-c3cscc3CN)cc2C(=O)Nc2ccc(C(=N)N)cc2)c(C(=O)O)c1 [substituted biphenyl derivative, 36an] |
| 740 nM | CC(C)CNC(=O)c1ccc(-c2ccc(-c3ccoc3CO)cc2C(=O)Nc2ccc(C(=N)N)cc2)c(C(=O)O)c1 [substituted biphenyl derivative, 36ao] |
| 2290 nM | CC(C)CNC(=O)c1ccc(-c2ccc(-c3cocc3CO)cc2C(=O)Nc2ccc(C(=N)N)cc2)c(C(=O)O)c1 [substituted biphenyl derivative, 36ap] |
| 770 nM | CC(C)CNC(=O)c1ccc(-c2ccc(-c3occc3CO)cc2C(=O)Nc2ccc(C(=N)N)cc2)c(C(=O)O)c1 [substituted biphenyl derivative, 36aq] |
| 1210 nM | CC(C)CNC(=O)c1ccc(-c2ccc(-c3ccncc3)cc2C(=O)Nc2ccc(C(=N)N)cc2)c(C(=O)O)c1 [substituted biphenyl derivative, 36x] |
| 240 nM | CC(C)CNC(=O)c1ccc(-c2ccc(-c3cccs3)cc2C(=O)Nc2ccc(C(=N)N)cc2)c(C(=O)O)c1 [substituted biphenyl derivative, 36z] |

Target: T2, Coagulation factor VII (Homo sapiens, UniProt P08709)
T2 sequence (P08709 whole entry): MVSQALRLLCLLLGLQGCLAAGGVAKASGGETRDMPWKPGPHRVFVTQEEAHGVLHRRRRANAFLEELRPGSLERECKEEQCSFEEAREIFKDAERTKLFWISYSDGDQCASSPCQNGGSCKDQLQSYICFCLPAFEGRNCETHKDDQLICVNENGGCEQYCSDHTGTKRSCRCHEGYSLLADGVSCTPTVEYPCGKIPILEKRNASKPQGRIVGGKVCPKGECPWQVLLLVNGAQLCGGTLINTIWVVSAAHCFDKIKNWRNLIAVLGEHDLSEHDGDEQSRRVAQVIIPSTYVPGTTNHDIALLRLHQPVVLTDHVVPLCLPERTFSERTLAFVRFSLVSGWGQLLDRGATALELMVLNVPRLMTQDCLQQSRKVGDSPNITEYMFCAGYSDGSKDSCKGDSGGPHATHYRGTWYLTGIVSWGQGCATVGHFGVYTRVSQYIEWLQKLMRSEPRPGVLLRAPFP
Experiment: TF-FVIIa Enzyme Inhibition Assay
Conditions: 25 °C

| IC50 | SMILES |
| --- | --- |
| 5720 nM | N=C(N)c1ccc(NC(=O)c2ccccc2-c2ccccc2C(=O)O)cc1 [substituted biphenyl derivative, 9] |

Same assay, conditions: pH 7.2; 23 °C

| IC50 | SMILES |
| --- | --- |
| 52 nM | CC(C)CNC(=O)c1ccc(-c2ccc(/C=C\CO)cc2C(=O)Nc2ccc(C(=N)N)cc2)c(C(=O)O)c1 [substituted biphenyl derivative, 36m] |
